Results taken from patent US9522907B2, “Anticancer agent and process for the preparation thereof” (COUNCIL OF SCIENTIFIC & INDUSTRIAL RESEARCH, priority 2014, dated 2016).

Columns and labels:
Test in all cases: cells
Assay type in all cases: cell-based
[1] = test system: CNS cancer cell lines; conditions: Homo sapiens
Source text: (§1) The mean graph midpoint values of Log10 GI50 as well as Log10 LC50 for the compounds 2i, 5i and Hoechst 33258 (NSC-322921) is listed in Table 2.
(§2) Each cancer type represents the average of six to eight different cancer cell lines.

[2] = test system: Breast cancer cell lines; conditions: Homo sapiens
Source text: as §1, §2

[3] = test system: Leukemia cancer cell lines; conditions: Homo sapiens; Leukemia; average of cell lines of the cancer type; read-out: Log10 GI50 mean graph midpoint (MG_MID) (converted)
Source text: as §1, §2

[4] = test system: Non-small-cell lung cancer cell lines; conditions: Homo sapiens; Non-small-cell lung; average of cell lines of the cancer type; read-out: Log10 GI50 mean graph midpoint (MG_MID) (converted)
Source text: as §1, §2

[5] = test system: Prostate cancer cell lines; conditions: Homo sapiens
Source text: as §1, §2

[6] = test system: Melanoma cancer cell lines; conditions: Homo sapiens; Melanoma; average of cell lines of the cancer type; read-out: Log10 GI50 mean graph midpoint (MG_MID) (converted)
Source text: as §1, §2

[7] = test system: Colon cancer cell lines; conditions: Homo sapiens; Colon; average of cell lines of the cancer type; read-out: Log10 GI50 mean graph midpoint (MG_MID) (converted)
Source text: as §1, §2

[8] = test system: Ovarian cancer cell lines; conditions: Homo sapiens
Source text: as §1, §2

[9] = test system: Renal cancer cell lines; conditions: Homo sapiens
Source text: as §1, §2

[10] = read-out: Log10 LC50 mean graph midpoint (MG_MID) (converted)

CN1CCN(c2ccc3nc(-c4ccc5nc(-c6ccc(O)cc6)[nH]c5c4)[nH]c3c2)CC1 [Hoechst 33258, reference compound]
CC50 [1, 10]: 1320 µM
GI50 ([1]; CNS, average of cell lines of the cancer type, read-out: Log10 GI50 mean graph midpoint (MG_MID) (converted)): 132 µM
CC50 [2, 10]: 1450 µM
GI50 ([2]; Breast, average of cell lines of the cancer type, read-out: Log10 GI50 mean graph midpoint (MG_MID) (converted)): 21.4 µM
GI50 [3]: 18.6 µM
GI50 [4]: 115 µM
CC50 [5, 10]: 1410 µM
GI50 ([5]; Prostate, average of cell lines of the cancer type, read-out: Log10 GI50 mean graph midpoint (MG_MID) (converted)): 631 µM
GI50 [6]: 25.1 µM
GI50 [7]: 79.4 µM
CC50 [8, 10]: 1200 µM
GI50 ([8]; Ovarian, average of cell lines of the cancer type, read-out: Log10 GI50 mean graph midpoint (MG_MID) (converted)): 195 µM
CC50 [9, 10]: 1260 µM
GI50 ([9]; Renal, average of cell lines of the cancer type, read-out: Log10 GI50 mean graph midpoint (MG_MID) (converted)): 166 µM
